Test results as given in publication PMC12775434, “Ultra-large virtual screening unveils potent agonists of the neuromodulatory orphan receptor GPR139” (Nature Communications, 2025).
Where “and” joins values, the source holds several entries; their conditions need not be identical. Equal entries are not always repeated. Where two headings read alike, the source gives them in different places.

Target: T1, GPR139 (arrestin-3 recruitment) (Homo sapiens, UniProt Q6DWJ6)
T1 construct: expressed in transfected cells; host or cells: HEK293A (transient, Lipofectamine 2000)
T1 sequence (Q6DWJ6 1-353): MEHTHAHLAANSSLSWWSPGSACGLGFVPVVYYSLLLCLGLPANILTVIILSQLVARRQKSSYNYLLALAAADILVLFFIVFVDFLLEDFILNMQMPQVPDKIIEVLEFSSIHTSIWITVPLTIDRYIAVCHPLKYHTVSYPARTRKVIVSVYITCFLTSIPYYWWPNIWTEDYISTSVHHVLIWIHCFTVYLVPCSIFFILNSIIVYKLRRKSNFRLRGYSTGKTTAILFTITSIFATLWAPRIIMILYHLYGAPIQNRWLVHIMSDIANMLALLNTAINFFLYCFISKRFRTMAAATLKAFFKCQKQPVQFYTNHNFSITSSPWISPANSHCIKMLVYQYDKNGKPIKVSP
Experiment: Arrestin-3 recruitment assay (enhanced bystander BRET), HEK293A
Assay type: cell-based
Settings: for Emax: HEK293-A, normalized to JNJ-63533054 (JNJ(S)); for EC50: read-out: pEC50 Arrestin-3 (converted); for Arrestin-3 recruitment: individual replicates
Procedure: Primary screening and pharmacological characterization of compounds were performed using a CHO-K1 cell line that stably expresses human GPR139 (GPR139-CHOk1). The GPR139-CHOk1 cell line was kindly provided by H. Lundbeck A/S, Denmark[24]. GPR139-CHOk1 cells were grown in Ham’s F-12 Kaighn’s Modification Medium (ThermoFisher #21127030) supplemented with 10% dialyzed fetal bovine serum (US origin, ThermoFisher #26400044), 100 units/mL Penicillin-Streptomycin (ThermoFisher #15140122), and 1 mg/mL Geneticin (ThermoFisher #11811031). […] M1R-CHOk1 cells were purchased from The Missouri S&T cDNA Resource Center (#CEM100TN00). M1R-CHOk1 cells were grown in Ham’s F12 Medium (ThermoFisher #21765029) supplemented with 10% fetal bovine serum (Brazilian origin, ThermoFisher #10270106), 100 units/mL Penicillin-Streptomycin, and 0.25 mg/mL Geneticin. HEK293A cells transiently transfected with GPR139 were used for additional pharmacological assessment of signaling pathways activated by GPR139. HEK239A cells were generously provided by Dr. Asuka Inoue, Tohoku University, Japan. HEK293A cells were grown in Dulbecco’s Modified Eagle Medium (ThermoFisher #31966047) supplemented with 10% dialyzed fetal bovine serum and 100 units/mL Penicillin-Streptomycin. Cell lines were maintained at 37 °C in humidified incubator equilibrated with 5% CO2.
The enhanced bystander BRET arrestin recruitment assay developed by the work of Donthamsetti et al.[58] was used to measure the arrestin-3 recruitment by GPR139. HEK293A cells were reverse transfected 20–24 h prior to the assay. 50,000 cells were plated in each well of white opaque tissue culture treated 96-well plates (PerkinElmer #6005680) previously coated with poly-D-lysine. The transfection solutions were prepared as described, and 10 µL transfection solution was mixed with 100 µL cells in each well. The cells in each well were transfected with 6 ng GPR139, 0.6 ng RLuc8-Arrestin3-Sp1, 6 ng GRK5, and 62.5 ng MEMlinker[doubly palmitoylated fragment of GAP43]-Citrine-SH3 using 200 nL Lipofectamine 2000 Transfection Reagent. Each transfection was normalized to 80 ng total DNA with pcDNA3.1. On the day of the experiment, the cells were washed with HEPES buffer and incubated for 2 h in HEPES buffer prior to measurements. Test compounds were diluted in HEPES buffer from DMSO stocks (final DMSO concentration of maximally 0.3%). Renilla luciferase 8 (RLuc8) substrate Coelenterazine h (Cayman Chemical #16894) was diluted in HEPES buffer to 5 µM (final). Coelenterazine h was added, and the cells were incubated for 5 min followed by stimulation with test compounds. Simultaneous dual emission was measured at 535 nm and 475 nm on LUMIstar Omega Microplate Reader (BMG Labtech) at 37 °C over 30 min. The BRET ratio of 535 nm/475 nm (Citrine/RLuc8), reflecting the translocation of arrestin from the cytosol to the membrane, was used to determine the arrestin recruitment. The BRET response-time course area under the curve of the basal response obtained with buffer condition was subtracted from the absolute response at a given test compound concentration, and the responses were normalized to the one obtained with 10 µM JNJ-63533054.
Pharmacological data and statistical analyses were performed in GraphPad Prism v9–10 (Graphpad Software Inc., San Diego, CA), which are also specifically described in the figure and table legends. The functional assay responses were normalized to buffer (0%) and Lundbeck Cmp 1a or JNJ-63533054 (100%), for Ca^2+ and IP1 experiments in the GPR139-CHOk1 stable cell line or Ca^2+, G protein activation, and arrestin-3 recruitment experiments in the HEK293A cells transiently transfected with GPR139, respectively. Data are from at least three independent experiments, unless stated otherwise. Concentration-response curves were fitted applying non-linear regression using the log (agonist) versus response model with variable slope. ANOVA was applied for comparing results and determining statistical significance. […]

Emax | EC50 (Supplementary Table 6) | EC50 | Structure (SMILES) | Arrestin-3 recruitment (log [compound] M -4.5) | Arrestin-3 recruitment (log [compound] M -5.0) | Arrestin-3 recruitment (log [compound] M -5.5) | Arrestin-3 recruitment (log [compound] M -6.0) | Arrestin-3 recruitment (log [compound] M -6.5) | Arrestin-3 recruitment (log [compound] M -7.0) | Arrestin-3 recruitment (log [compound] M -7.5) | Arrestin-3 recruitment (log [compound] M -4.5, listed as JNJ (S)) | Arrestin-3 recruitment (log [compound] M -5.0, listed as JNJ (S)) | Arrestin-3 recruitment (log [compound] M -5.5, listed as JNJ (S)) | Arrestin-3 recruitment (log [compound] M -6.0, listed as JNJ (S)) | Arrestin-3 recruitment (log [compound] M -6.5, listed as JNJ (S)) | Arrestin-3 recruitment (log [compound] M -7.0, listed as JNJ (S)) | Arrestin-3 recruitment (log [compound] M -7.5, listed as JNJ (S))
81 ± 5% | 2510 nM |  | Cc1cscc1-c1nc(CC(=O)N[C@H](C)c2ccccc2)no1 [1.1(R)] | 72 % of JNJ-63533054 and 73 % of JNJ-63533054 and 89 % of JNJ-63533054 | 69 % of JNJ-63533054 and 65 % of JNJ-63533054 (2×) | 54 % of JNJ-63533054 and 40 % of JNJ-63533054 and 41 % of JNJ-63533054 | 36 % of JNJ-63533054 and 10 % of JNJ-63533054 and 17 % of JNJ-63533054 | 17 % of JNJ-63533054 and 3.28 % of JNJ-63533054 and 1.44 % of JNJ-63533054 | 12 % of JNJ-63533054 and 3.28 % of JNJ-63533054 and 2 % of JNJ-63533054 | 1.13 % of JNJ-63533054 and 0.124 % of JNJ-63533054 and 0.145 % of JNJ-63533054 |  |  |  |  |  |  | 
96 ± 1% | 79.4 nM |  | Cc1cscc1-c1nc(CC(=O)N[C@@H](C)c2ccccc2)no1 [1.1(S)] | 96 % of JNJ-63533054 and 88 % of JNJ-63533054 and 101 % of JNJ-63533054 | 90 % of JNJ-63533054 and 91 % of JNJ-63533054 (2×) | 89 % of JNJ-63533054 and 102 % of JNJ-63533054 and 91 % of JNJ-63533054 | 109 % of JNJ-63533054 and 107 % of JNJ-63533054 and 84 % of JNJ-63533054 | 82 % of JNJ-63533054 and 87 % of JNJ-63533054 and 66 % of JNJ-63533054 | 57 % of JNJ-63533054 and 71 % of JNJ-63533054 and 50 % of JNJ-63533054 | 23 % of JNJ-63533054 and 32 % of JNJ-63533054 and 4.63 % of JNJ-63533054 |  |  |  |  |  |  | 
 |  | 15800 nM | C[C@@H](NC(=O)CNC(=O)c1cccc(Cl)c1)c1ccccc1 [JNJ(R), reference compound] | 43 % of JNJ-63533054 and 70 % of JNJ-63533054 and 77 % of JNJ-63533054 | 41 % of JNJ-63533054 and 39 % of JNJ-63533054 and 33 % of JNJ-63533054 | 37 % of JNJ-63533054 and 35 % of JNJ-63533054 and 17 % of JNJ-63533054 | 20 % of JNJ-63533054 and 22 % of JNJ-63533054 and 12 % of JNJ-63533054 | 14 % of JNJ-63533054 and 8 % of JNJ-63533054 and 1.75 % of JNJ-63533054 | 4 % of JNJ-63533054 and 10 % of JNJ-63533054 and 2 % of JNJ-63533054 | 0 % of JNJ-63533054 (2×) and 0.153 % of JNJ-63533054 |  |  |  |  |  |  | 
100 ± 4% | 158 nM |  | CC(NC(=O)CNC(=O)c1cccc(Cl)c1)c1ccccc1 (centres unmarked) [JNJ-63533054, reference compound] |  |  |  |  |  |  |  | 94 % of JNJ-63533054 and 101 % of JNJ-63533054 and 107 % of JNJ-63533054 | 95 % of JNJ-63533054 and 99 % of JNJ-63533054 and 103 % of JNJ-63533054 | 90 % of JNJ-63533054 and 100 % of JNJ-63533054 and 94 % of JNJ-63533054 | 85 % of JNJ-63533054 and 100 % of JNJ-63533054 and 78 % of JNJ-63533054 | 68 % of JNJ-63533054 and 81 % of JNJ-63533054 and 55 % of JNJ-63533054 | 45 % of JNJ-63533054 (2×) and 36 % of JNJ-63533054 | 8 % of JNJ-63533054 and 15 % of JNJ-63533054 and 0.123 % of JNJ-63533054
